Assay results as given in US9102619B2, “Derivatives of 1-phenyl-2-pyridinyl alkyl alcohols as phosphodiesterase inhibitors” (Chiesi Farmaceutici S.p.A., priority 2007, dated 2015).

Key:
[1] = test system: LPS-induced TNF-α release in peripheral blood mononuclear cells (PBMCs); test: PDE4 inhibitory activity in the PBMCs assay (LPS-induced TNF-α release); format: cell-based; details: human PBMCs, LPS 3 ng/ml, 18 hours, TNF-α by ELISA
Description: The assay, which is based on the known inhibitory activity exerted by PDE4 inhibitors on the lipopolysaccharides (LPS)-induced tumour necrosis factor-alpha (TNF-α release in peripheral blood mononuclear cells (PBMCs), was performed according to a method previously described (Hatzelmann A. et al., J. Pharmacol. Exp. Ther., 2001; 297:267-279; Draheim R. et al., J. Pharmacol. Exp. Ther., 2004; 308:555-563. Cryopreserved human PBMCs, (100 μl/well) were incubated in 96-well plates (10^5 cells/well), for 30 min, in the presence or absence (50 microl) of the test compounds whose concentrations ranged from 10^−12 M to 10^−6M. Subsequently, LPS (3 ng/ml) was added. After 18 hours of incubation at 37° C. in a humidified incubator under an atmosphere of 95% air and 5% CO2, culture medium was collected and TNF-α measured by ELISA.
The effects of the tested compounds were calculated as percentage of inhibition of TNF-α release, assuming LPS-induced TNF-α production in the absence of inhibitor compound as 100% and basal TNF-α production of PBMCs in the absence of LPS as 0%.

PDE4 enzyme = test: In vitro PDE4 inhibitory activity in the cell free assay (cAMP disappearance, U937 cell supernatant); format: biochemical, human; details: 1.6 μM cAMP, 30° C. 30 minutes
Description: The U937 human monocytic cell line was used as source of PDE4 enzyme. Cells were cultured, harvested and supernatant fraction prepared essentially as described in Torphy, T. J. et al., J. Pharmacol. Exp. Ther., 1992; 263:1195-1205. PDE4 activity was determined in cells supernatants by assaying cAMP disappearance from the incubation mixtures. 50 μl of cell supernatant were incubated at 30° C. for 30 minutes in a final volume of 200 μl in the presence of 1.6 μM cAMP with or without the test compound (50 μl).
The concentration of the test compounds ranged between 10^−12 M and 10^−6 M. Reactions were stopped by heat inactivation (2.5 minutes at 100° C.) and residual cAMP was measured using an electrochemiluminescence (ECL)-based immunoassay.
Percentage of inhibition of PDE4 activity was calculated, assuming cAMP disappearance in the absence of inhibitors as 100% and cAMP disappearance in heat inactivated samples as 0%.

LPDE4 [2] = test: Inhibition of low affinity LPDE4 (cAMP disappearance); format: biochemical; details: ratio of IC50 values
Source text: (§1) Advantageously the compounds of the invention are characterized by selectivity toward LPDE4 higher than that toward HPDE4 as obtained by the determination of their IC50. In the case of LPDE4, the IC50 is the molar concentration of the test compound producing 50% inhibition of cAMP disappearance, assessed as described in Cortijo, J. et al., Br. J. Pharmacol., 1993, 108: 562-568, while in the case of HPDE4, the IC50 is the molar concentration of the test compound producing 50% inhibition of the binding of [H^3] rolipram, assessed as described in Duplantier, A. J. et al., J. Med. Chem., 1996; 39: 120-125. Preferably the HPDE4/LPDE4 IC50 ratio for the compounds of the invention is higher than 5, preferably higher than 10, more preferably higher than 20 and even more preferably higher than 100.
(§2) The affinity toward LPDE4 and HPDE4 was assessed as previously described respectively in Cortijo J. et al., Br. J. Pharmacol., 1993, 108: 562-568 and Duplantier A. J. et al., J. Med. Chem., 1996; 39: 120-125. In the case of LPDE4, the IC50 is the molar concentration of the test compound producing 50% inhibition of cAMP disappearance, while in the case of HPDE4, the IC50 is the molar concentration of the test compound producing 50% inhibition of the binding of [H^3] rolipram.

LPDE4 [3] = test system: T1, LPDE4; test: as above; format: biochemical; details: 50% inhibition of cAMP disappearance
T1 construct: LPDE4 IC50
Source text: as §1, §2

HPDE4 = test: Competition for high affinity HPDE4 ([H^3] rolipram binding); details: 50% inhibition of the binding of [H^3] rolipram
Source text: as §1, §2

| Compound | IC50 ([1]; PBMC) | IC50 (PDE4 enzyme) | HPDE4/LPDE4 (LPDE4 [2]) | IC50 (LPDE4 [3]) | IC50 (HPDE4) | IC50 [1] |
| --- | --- | --- | --- | --- | --- | --- |
| N[C@H](C(=O)OC(Cc1c(Cl)cncc1Cl)c1ccc(OC(F)F)c(OCC2CC2)c1)c1ccccc1 (stereo partly drawn) [Compound 7, (S)-amino-phenyl-acetic acid 1-(3-cyclopropylmethoxy-4-difluoromethoxy-phenyl)-2-(3,5-dichloro-pyridin-4-yl)-ethyl ester] | 99 nM | 7 nM |  |  |  |  |
| COc1ccc(C(Cc2c(Cl)cncc2Cl)OC(=O)[C@@H](C)c2ccc(CC(C)C)cc2)cc1OC (stereo partly drawn) [Compound 1, (S)-2-(4-isobutyl-phenyl)-propionic acid 2-(3,5-dichloro-pyridin-4-yl)-1-(3,4-dimethoxy-phenyl)-ethyl ester] | 69 nM | 118 nM |  |  |  |  |
| COc1ccc(C(O)Cc2c(Cl)c[n+]([O-])cc2Cl)cc1OC1CCCC1 (stereo not drawn) [Compound 20] |  |  | 394 | 0.759 nM | 299 nM |  |
| COc1ccc(C(Cc2c(Cl)cncc2Cl)OC(=O)C2(c3ccccc3)CC2)cc1OC (stereo not drawn) [Compound 3, 1-phenyl-cyclopropanecarboxylic acid 2-(3,5-dichloro-pyridin-4-yl)-1-(3,4-dimethoxy-phenyl)-ethyl ester] | 52 nM | 118 nM |  |  |  |  |
| COc1ccc(C(Cc2c(Cl)cncc2Cl)OC(=O)Cc2ccccc2)cc1OC (stereo not drawn) [Compound 2, phenyl-acetic acid 2-(3,5-dichloro-pyridin-4-yl)-1-(3,4-dimethoxy-phenyl)-ethyl ester] | 89 nM |  |  |  |  |  |
| CC(C)Cc1ccc(C(C)C(=O)OC(Cc2c(Cl)cncc2Cl)c2ccc(OC(F)F)c(OCC3CC3)c2)cc1 (stereo not drawn) [Compound 12, 2-(4-isobutyl-phenyl)-propionic acid 1-(3-cyclopropylmethoxy-4-difluoromethoxy-phenyl)-2-(3,5-dichloro-pyridin-4-yl)-ethyl ester] | 456 nM | 12 nM |  |  |  |  |
| COc1ccc(C(Cc2c(Cl)c[n+]([O-])cc2Cl)OC(=O)C(C)c2ccc(CC(C)C)cc2)cc1OC [Compound 13, (S)-2-(4-isobutyl-phenyl)-propionic acid 2-(3,5-dichloro-1-oxy-pyridin-4-yl)-1-(3,4-dimethoxy-phenyl)-ethyl ester] | 13 nM |  |  |  |  |  |
| COc1ccc(C(Cc2c(Cl)cncc2Cl)OC(=O)C(C)c2ccc(N)cc2)cc1OC (stereo not drawn) [Compound 16, 2-(4-amino-phenyl)-propionic acid 2-(3,5-dichloro-pyridin-4-yl)-1-(3,4-dimethoxy-phenyl)-ethyl ester] | 36 nM | 6.3 nM |  |  |  |  |
| COc1ccc(C(Cc2c(Cl)cncc2Cl)OC(=O)C(C)c2ccc(CC(C)C)cc2)cc1OC1CCCC1 (stereo not drawn) [Compound 9, 2-(4-isobutyl-phenyl)-propionic acid 1-(3-cyclopentyloxy-4-methoxy-phenyl)-2-(3,5-dichloro-pyridin-4-yl)-ethyl ester] | 85 nM | 22 nM | 541 | 0.738 nM | 399 nM |  |
| CC(C)(C)OC(=O)N[C@@H](C(=O)OC(Cc1c(Cl)cncc1Cl)c1ccc(OC(F)F)c(OCC2CC2)c1)c1ccccc1 (stereo partly drawn) [Compound 6, (R)-tert-butoxycarbonylamino-phenyl-acetic acid 1-(3-cyclopropylmethoxy-4-difluoromethoxy-phenyl)-2-(3,5-dichloro-pyridin-4-yl)-ethyl ester] | 95 nM | 9 nM |  |  |  |  |
| CC(C)Cc1ccc(C(C)C(=O)OC(Cc2c(Cl)c[n+]([O-])cc2Cl)c2ccc(OC(F)F)c(OCC3CC3)c2)cc1 (stereo not drawn) [Compound 15, 2-(4-isobutyl-phenyl)-propionic acid 1-(3-cyclopropylmethoxy-4-difluoromethoxy-phenyl)-2-(3,5-dichloro-1-oxy-pyridin-4-yl)-ethyl ester] |  | 8.6 nM | 273 | 0.169 nM | 2.17 nM | 15 nM |
| O=C(OC(Cc1c(Cl)cncc1Cl)c1ccc(OC(F)F)c(OCC2CC2)c1)c1ccc(OC(F)F)c(OCC2CC2)c1 (stereo not drawn) [Compound 11, 3-cyclopropylmethoxy-4-difluoromethoxy-benzoic acid 1-(3-cyclopropylmethoxy-4-difluoromethoxy-phenyl)-2-(3,5-dichloro-pyridin-4-yl)-ethyl ester] | 51 nM | 12 nM | 1319 | 0.116 nM | 153 nM |  |
| COc1ccc(C(=O)OC(Cc2c(Cl)cncc2Cl)c2ccc(OC)c(OC)c2)cc1OC (stereo not drawn) [Compound 4, 3,4-dimethoxy-benzoic acid 2-(3,5-dichloro-pyridin-4-yl)-1-(3,4-dimethoxy-phenyl)-ethyl ester] | 34.2 nM | 3.4 nM |  |  |  |  |
| O=C(OC(Cc1c(Cl)c[n+]([O-])cc1Cl)c1ccc(OC(F)F)c(OCC2CC2)c1)c1ccc(OC(F)F)c(OCC2CC2)c1 (stereo not drawn) [Compound 14, 3-cyclopropylmethoxy-4-difluoromethoxy-benzoic acid 1-(3-cyclopropylmethoxy-4-difluoromethoxy-phenyl)-2-(3,5-dichloro-1-oxy-pyridin-4-yl)-ethyl ester] | 2 nM |  |  |  |  |  |
| N[C@@H](C(=O)OC(Cc1c(Cl)cncc1Cl)c1ccc(OC(F)F)c(OCC2CC2)c1)c1ccccc1 (stereo partly drawn) [Compound 8, (R)-amino-phenyl-acetic acid 1-(3-cyclopropylmethoxy-4-difluoromethoxy-phenyl)-2-(3,5-dichloro-pyridin-4-yl)-ethyl ester] |  | 22 nM |  |  |  |  |
